By IC50 is commonly meant the concentration that inhibits the measured activity by half.

The target in one experiment is DYRK1a (h) (Homo sapiens (Human), UniProt Q13627). The experiment can be described thus: Kinase selectivity panel and IC50 determination. It is filed as biochemical. To be noted: 10 μM, duplicate; read-out: % inhibition of control values, DYRK1a (h). The method, then:
(§1) (a) Compound 1 was tested against a panel of 60 kinases in order to assess its selectivity. The assays were chosen taking into consideration the diversity of assay families.
(§2) Human recombinant kinases were incubated in the presence of specific peptide substrates plus ATP for different times (10, 15, 30, 60 or 90 minutes) at 22° C. Phosphorylated substrate was detected by LANCE or HTRF technology (CISBIO, MA, USA).
(§3) Compound 1 was tested at 10 μM in duplicate.
(§4) The results are expressed as a percent of inhibition of control specific activity obtained in the presence of the test compound 1 and are reported in the following Table 5.
(§5) Compound 1 was also assayed to determine the IC50 values for three different kinases (PCTAIRE1, DYRK1a, and CDK2) in comparison to Gsk3β. The assay was conducted with the same method described above in test I, second assay.
(§6) (b) Compounds 7, 12, 21 and 24 were tested against the same panel of 60 kinases under the same conditions described above for compound 1.
(§7) The results are expressed as a percent of inhibition of control specific activity obtained in the presence of the test compounds and are reported in the following Table 6.

A further experiment addresses PCTAIRE1 kinase (h) (Homo sapiens (Human), UniProt Q00536). The experiment can be described thus: Kinase selectivity panel and IC50 determination. In kind it is biochemical. To be noted: 10 μM, duplicate; read-out: % inhibition of control values, PCTAIRE1 kinase (h). The method, then:
as §1, §2, §3, §4, §5, §6, §7

Another experiment addresses CDK2 (h) (cycA) (Homo sapiens (Human), UniProt P24941). The experiment can be described thus: Kinase selectivity panel and IC50 determination. In kind it is biochemical. Conditions: 10 μM, duplicate; read-out: % inhibition of control values, CDK2 (h) (cycA). The method, then:
as §1, §2, §3, §4, §5, §6, §7

A further experiment deals with smMLCK (h) (MYLK) (Homo sapiens (Human), UniProt Q15746). Briefly: Kinase selectivity panel. In kind it is biochemical. Conditions: duplicate, read-out: % inhibition of control values, smMLCK (h) (MYLK). As to the method:
as §1, §2, §3, §4, §6, §7

The next experiment deals with Src kinase (h) (Homo sapiens (Human), UniProt P12931). Briefly: Kinase selectivity panel. In kind it is biochemical. To be noted: duplicate, read-out: % inhibition of control values, Src kinase (h). The method, then:
as §1, §2, §3, §4, §6, §7

The target of a further experiment is NEK1 (h) (Homo sapiens (Human), UniProt Q96PY6). Briefly: Kinase selectivity panel. In kind it is biochemical. To be noted: duplicate, read-out: % inhibition of control values, NEK1 (h). The method, then:
as §1, §2, §3, §4, §6, §7

The target in another experiment is GSK3beta (h) (Homo sapiens (Human), UniProt P49841). Briefly: Kinase selectivity panel. In kind it is biochemical. Conditions: for inhibition at 10 µM: duplicate, read-out: % inhibition of control values, GSK3beta (h); for Selectivity for GSK-3β compared to the other kinases of the panel: panel of 60 kinases, 10 μM. As to the method:
as §1, §2, §3, §4, §6, §7

Another experiment concerns the target TRKA (h) (Homo sapiens (Human), UniProt P04629). Briefly: Kinase selectivity panel. To be noted: duplicate, read-out: % inhibition of control values, TRKA (h). In kind it is biochemical. As to the method:
as §1, §2, §3, §4, §6, §7

The target in the next experiment is HGK (h) (MAP4K4) (Homo sapiens (Human), UniProt O95819). Briefly: Kinase selectivity panel. Conditions: duplicate, read-out: % inhibition of control values, HGK (h) (MAP4K4). It is filed as biochemical. The method, then: as §1, §2, §3, §4, §6, §7
The target of a further experiment is ERK1 (h) (Homo sapiens (Human), UniProt P27361). Briefly: Kinase selectivity panel. It is filed as biochemical. Conditions: duplicate, read-out: % inhibition of control values, ERK1 (h). The method, then:
as §1, §2, §3, §4, §6, §7

In a further experiment the target is CDC2/CDK1 (h) (cycB) (Homo sapiens (Human), UniProt P06493). The experiment can be described thus: Kinase selectivity panel. In kind it is biochemical. To be noted: duplicate, read-out: % inhibition of control values, CDC2/CDK1 (h) (cycB). As to the method:
as §1, §2, §3, §4, §6, §7

The target in another experiment is CDK5/p35 (h) (Homo sapiens (Human), UniProt Q00535). Briefly: Kinase selectivity panel. It is filed as biochemical. To be noted: duplicate, read-out: % inhibition of control values, CDK5/p35 (h). The method, then:
as §1, §2, §3, §4, §6, §7

For another experiment, the target named is ERK2 (h) (P42mapk) (Homo sapiens (Human), UniProt P28482). Briefly: Kinase selectivity panel. Conditions: duplicate, read-out: % inhibition of control values, ERK2 (h) (P42mapk). It is filed as biochemical. As to the method:
as §1, §2, §3, §4, §6, §7

For another experiment, the target named is IRK (h) (InsR) (Homo sapiens (Human), UniProt P06213). Briefly: Kinase selectivity panel. It is filed as biochemical. Conditions: duplicate, read-out: % inhibition of control values, IRK (h) (InsR). The method, then:
as §1, §2, §3, §4, §6, §7

The next experiment addresses TAOK2 (TAO1) (h) (Homo sapiens (Human), UniProt Q9UL54). Briefly: Kinase selectivity panel. It is filed as biochemical. To be noted: duplicate, read-out: % inhibition of control values, TAOK2 (TAO1) (h). As to the method:
as §1, §2, §3, §4, §6, §7

For another experiment, the target named is MEK1/MAP2K1 (h) (Homo sapiens (Human), UniProt Q02750). Briefly: Kinase selectivity panel. To be noted: duplicate, read-out: % inhibition of control values, MEK1/MAP2K1 (h). It is filed as biochemical. The method, then: as §1, §2, §3, §4, §6, §7
Experiment [1] deals with T1, human GSK-3β (Homo sapiens (Human), UniProt P49841). The experiment can be described thus: Activity on human GSK-3β, substrate phosphorylation measured by LANCE technology. It is filed as biochemical. To be noted: LANCE phosphorylation assay; five concentrations 100 μM to 10 nM, duplicate; read-out: IC50. As to the method:
Activity on human GSK-3β was assessed using the following methods (according to Meijer et al., Chem. Biol., 2003-10:1255-1266).
In a first screening assay, compounds were tested in duplicate at a concentration of 10 μM.
Human recombinant enzyme GSK-3β was incubated for 90 minutes at 22° C. in the presence of compounds or vehicle in a reaction buffer containing ATP plus 100 nM unphosphorylated specific substrate peptide (Ulight-[…]-amide). Substrate phosphorylation was measured by LANCE technology (PerkinElmer, Conn., USA).
The results, reported in the following Table 4, are expressed as a percent of inhibition of control specific activity obtained in the presence of the test compounds (as % inhibition at 10 μm).
(§8) In a second assay, the same compounds were assayed at five concentrations ranging from 100 μM to 10 nM with ten-fold dilutions in duplicate. Compounds 1 to 7, 9, 11 and 13 to 26 were tested using the same first assay, compounds 8, 10, 12, and 27 to 31 were tested in another assay based on the binding and displacement of AlexaFluor® 647 labeled, ATP-competitive Kinase inhibitor scaffold using LanthaScreen™ TR-FRET technology Eu Kinase assay packet according to manufacturer's instruction (Life Technologies, Italy).
(§9) The IC50 values (concentration causing a half maximal inhibition of control specific activity), reported in table 4, were determined by non-linear regression analysis of the inhibition curves generated with mean replicate values using Hill equation curve fitting.

Experiment [2] has as its target T1, human GSK-3β. The experiment can be described thus: LanthaScreen TR-FRET Eu Kinase binding and displacement assay. Conditions: five concentrations 100 μM to 10 nM, duplicate. As to the method:
as §8, §9
Background: TR-FRET usually uses a lanthanide donor and a delayed reading to cut background.

The structures appear in SMILES notation.

Sequence of GSK3beta (h) (P49841 whole entry): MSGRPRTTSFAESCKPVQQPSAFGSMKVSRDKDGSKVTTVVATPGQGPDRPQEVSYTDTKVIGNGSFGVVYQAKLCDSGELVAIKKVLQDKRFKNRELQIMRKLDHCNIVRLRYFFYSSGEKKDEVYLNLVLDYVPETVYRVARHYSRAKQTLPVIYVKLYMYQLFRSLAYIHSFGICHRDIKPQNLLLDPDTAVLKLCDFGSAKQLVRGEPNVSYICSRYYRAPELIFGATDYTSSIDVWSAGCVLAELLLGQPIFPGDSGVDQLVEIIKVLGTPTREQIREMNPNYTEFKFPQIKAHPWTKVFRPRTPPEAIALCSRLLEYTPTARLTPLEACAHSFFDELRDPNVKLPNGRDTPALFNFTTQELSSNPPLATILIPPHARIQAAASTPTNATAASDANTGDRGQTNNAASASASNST
Sequence of ERK2 (h) (P42mapk) (P28482 whole entry): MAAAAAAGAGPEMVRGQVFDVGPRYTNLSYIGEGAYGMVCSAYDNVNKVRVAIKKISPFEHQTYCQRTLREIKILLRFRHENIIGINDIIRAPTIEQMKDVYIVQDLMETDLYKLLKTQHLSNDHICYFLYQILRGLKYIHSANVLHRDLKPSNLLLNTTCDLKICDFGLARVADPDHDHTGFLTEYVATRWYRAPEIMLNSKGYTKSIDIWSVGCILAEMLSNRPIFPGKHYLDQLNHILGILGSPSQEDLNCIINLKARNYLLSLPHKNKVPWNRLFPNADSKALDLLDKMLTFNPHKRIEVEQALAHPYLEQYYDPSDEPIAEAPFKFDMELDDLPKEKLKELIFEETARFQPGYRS
Sequence of CDC2/CDK1 (h) (cycB) (P06493 whole entry): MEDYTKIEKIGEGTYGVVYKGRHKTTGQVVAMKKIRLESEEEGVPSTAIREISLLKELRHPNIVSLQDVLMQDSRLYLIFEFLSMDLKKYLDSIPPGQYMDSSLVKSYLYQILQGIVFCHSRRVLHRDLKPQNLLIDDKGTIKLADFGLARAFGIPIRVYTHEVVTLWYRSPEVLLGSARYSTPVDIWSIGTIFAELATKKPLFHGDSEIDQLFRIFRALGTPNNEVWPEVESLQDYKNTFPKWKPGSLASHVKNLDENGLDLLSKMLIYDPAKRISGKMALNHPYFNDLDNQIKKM
Sequence of CDC2/CDK1 (h) (cycB) (P14635 whole entry partner): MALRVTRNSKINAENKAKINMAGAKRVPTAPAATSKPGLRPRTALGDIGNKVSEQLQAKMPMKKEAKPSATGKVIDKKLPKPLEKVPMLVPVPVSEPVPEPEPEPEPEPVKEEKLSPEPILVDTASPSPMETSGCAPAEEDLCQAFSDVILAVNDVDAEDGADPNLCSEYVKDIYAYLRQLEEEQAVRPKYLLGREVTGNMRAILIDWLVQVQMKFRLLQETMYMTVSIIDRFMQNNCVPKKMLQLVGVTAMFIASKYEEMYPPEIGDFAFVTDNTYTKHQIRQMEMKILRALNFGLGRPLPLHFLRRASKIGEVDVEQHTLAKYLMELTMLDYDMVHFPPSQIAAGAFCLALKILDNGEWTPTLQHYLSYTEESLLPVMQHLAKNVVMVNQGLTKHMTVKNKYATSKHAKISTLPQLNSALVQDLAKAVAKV
Sequence of HGK (h) (MAP4K4) (O95819 whole entry): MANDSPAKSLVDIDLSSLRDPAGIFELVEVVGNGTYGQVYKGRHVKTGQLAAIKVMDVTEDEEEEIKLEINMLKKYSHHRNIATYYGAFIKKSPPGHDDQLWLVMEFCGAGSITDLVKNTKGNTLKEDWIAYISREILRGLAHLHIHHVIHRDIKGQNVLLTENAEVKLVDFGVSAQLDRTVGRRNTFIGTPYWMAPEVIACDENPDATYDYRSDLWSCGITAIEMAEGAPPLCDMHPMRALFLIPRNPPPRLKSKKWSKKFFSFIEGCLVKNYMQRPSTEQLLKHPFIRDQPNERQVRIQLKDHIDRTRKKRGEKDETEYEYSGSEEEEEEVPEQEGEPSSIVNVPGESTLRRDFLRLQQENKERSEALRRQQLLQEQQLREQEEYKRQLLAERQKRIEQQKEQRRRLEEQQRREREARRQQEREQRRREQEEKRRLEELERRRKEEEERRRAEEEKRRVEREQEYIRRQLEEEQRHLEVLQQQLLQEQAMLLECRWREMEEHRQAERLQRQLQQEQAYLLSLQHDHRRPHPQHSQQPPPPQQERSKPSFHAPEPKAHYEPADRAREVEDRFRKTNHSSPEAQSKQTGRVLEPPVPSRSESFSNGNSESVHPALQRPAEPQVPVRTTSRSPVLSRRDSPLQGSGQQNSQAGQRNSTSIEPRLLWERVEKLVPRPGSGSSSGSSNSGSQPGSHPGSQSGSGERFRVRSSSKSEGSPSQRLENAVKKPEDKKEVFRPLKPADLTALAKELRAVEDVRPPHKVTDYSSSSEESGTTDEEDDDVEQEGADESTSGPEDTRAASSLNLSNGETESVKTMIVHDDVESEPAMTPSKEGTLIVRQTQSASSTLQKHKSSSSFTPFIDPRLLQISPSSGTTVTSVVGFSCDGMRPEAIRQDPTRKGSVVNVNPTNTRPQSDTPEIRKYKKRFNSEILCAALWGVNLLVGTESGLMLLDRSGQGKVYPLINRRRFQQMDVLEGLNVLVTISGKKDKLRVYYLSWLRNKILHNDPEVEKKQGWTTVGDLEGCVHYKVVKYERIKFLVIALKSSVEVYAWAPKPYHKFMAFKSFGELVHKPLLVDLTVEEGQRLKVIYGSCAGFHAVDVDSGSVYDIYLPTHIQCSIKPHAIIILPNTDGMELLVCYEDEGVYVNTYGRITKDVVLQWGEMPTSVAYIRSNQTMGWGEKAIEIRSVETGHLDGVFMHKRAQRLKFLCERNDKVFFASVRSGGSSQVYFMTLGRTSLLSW
Sequence of TAOK2 (TAO1) (h) (Q9UL54 whole entry): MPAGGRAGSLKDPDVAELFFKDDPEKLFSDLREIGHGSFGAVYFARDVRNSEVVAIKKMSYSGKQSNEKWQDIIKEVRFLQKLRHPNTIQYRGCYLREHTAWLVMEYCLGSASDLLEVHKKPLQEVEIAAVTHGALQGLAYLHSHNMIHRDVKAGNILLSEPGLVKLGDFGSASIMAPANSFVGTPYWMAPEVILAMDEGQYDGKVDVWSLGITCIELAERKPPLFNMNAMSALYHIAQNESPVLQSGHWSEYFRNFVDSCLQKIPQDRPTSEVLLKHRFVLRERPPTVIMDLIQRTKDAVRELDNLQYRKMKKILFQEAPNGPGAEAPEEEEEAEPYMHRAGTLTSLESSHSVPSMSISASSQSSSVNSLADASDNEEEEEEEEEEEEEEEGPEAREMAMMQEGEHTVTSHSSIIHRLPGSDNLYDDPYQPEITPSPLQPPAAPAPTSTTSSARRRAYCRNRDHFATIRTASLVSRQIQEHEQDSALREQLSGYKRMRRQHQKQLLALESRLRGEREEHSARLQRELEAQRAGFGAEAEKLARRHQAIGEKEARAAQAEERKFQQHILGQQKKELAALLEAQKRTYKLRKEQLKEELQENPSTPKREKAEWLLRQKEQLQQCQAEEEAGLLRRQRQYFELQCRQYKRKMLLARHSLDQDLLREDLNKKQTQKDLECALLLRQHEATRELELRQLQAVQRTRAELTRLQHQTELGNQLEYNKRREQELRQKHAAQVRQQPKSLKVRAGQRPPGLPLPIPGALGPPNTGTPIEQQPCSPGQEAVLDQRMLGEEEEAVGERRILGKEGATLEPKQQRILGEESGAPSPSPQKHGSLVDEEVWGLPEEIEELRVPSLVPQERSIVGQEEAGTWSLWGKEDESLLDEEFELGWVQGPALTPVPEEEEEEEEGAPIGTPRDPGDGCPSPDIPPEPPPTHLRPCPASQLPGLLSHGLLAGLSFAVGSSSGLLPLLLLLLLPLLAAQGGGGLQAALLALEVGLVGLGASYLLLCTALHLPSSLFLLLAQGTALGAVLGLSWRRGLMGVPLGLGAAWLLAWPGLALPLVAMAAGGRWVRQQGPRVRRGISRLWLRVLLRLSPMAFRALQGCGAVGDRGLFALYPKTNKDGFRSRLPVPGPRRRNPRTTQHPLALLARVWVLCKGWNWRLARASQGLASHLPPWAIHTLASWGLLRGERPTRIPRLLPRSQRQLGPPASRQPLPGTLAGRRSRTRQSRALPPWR
Sequence of TRKA (h) (P04629 33-796): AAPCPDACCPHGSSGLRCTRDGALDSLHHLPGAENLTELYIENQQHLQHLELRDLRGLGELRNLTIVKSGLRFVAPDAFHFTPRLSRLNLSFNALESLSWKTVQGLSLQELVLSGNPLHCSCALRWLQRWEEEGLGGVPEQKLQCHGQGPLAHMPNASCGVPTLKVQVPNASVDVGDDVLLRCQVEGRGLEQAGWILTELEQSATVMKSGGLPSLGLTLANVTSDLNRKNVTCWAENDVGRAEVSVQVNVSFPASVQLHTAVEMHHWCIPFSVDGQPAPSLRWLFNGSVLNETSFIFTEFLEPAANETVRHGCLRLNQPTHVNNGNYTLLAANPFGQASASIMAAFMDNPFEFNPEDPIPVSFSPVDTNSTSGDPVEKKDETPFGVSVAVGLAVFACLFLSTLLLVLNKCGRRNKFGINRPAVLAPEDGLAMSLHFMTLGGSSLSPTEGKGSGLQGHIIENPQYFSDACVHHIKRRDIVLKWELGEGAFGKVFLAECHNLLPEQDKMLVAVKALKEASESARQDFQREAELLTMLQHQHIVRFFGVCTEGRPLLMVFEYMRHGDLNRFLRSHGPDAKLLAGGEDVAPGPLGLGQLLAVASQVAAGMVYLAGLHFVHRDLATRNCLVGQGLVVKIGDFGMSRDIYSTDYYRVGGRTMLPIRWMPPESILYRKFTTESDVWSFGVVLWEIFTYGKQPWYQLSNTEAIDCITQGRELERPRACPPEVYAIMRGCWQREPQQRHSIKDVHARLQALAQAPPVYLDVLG
T1 sequence (P49841 whole entry): as the sequence (P49841 whole entry) above

In the case of `COC(=O)c1csc(CN2CCC(CNC(=O)c3n[nH]c4ccc(OC)cc34)CC2)n1` [Compound 7, Methyl 2-{[4-({[(5-methoxy-1H-indazol-3-yl)carbonyl]amino}methyl)piperidin-1-yl]methyl}-1,3-thiazole-4-carboxylate], the inhibition at 10 µM was 88% at DYRK1a (h); 2% at PCTAIRE1 kinase (h); 48% on CDK2 (h) (cycA); 26% on smMLCK (h) (MYLK); 9% at Src kinase (h); 0% on NEK1 (h). For the same compound, the inhibition at 10 µM on GSK3beta (h) amounted to 96%; on TRKA (h) it was 1%; at HGK (h) (MAP4K4) it was 21%; at ERK1 (h), 31%; on CDC2/CDK1 (h) (cycB), 6%; at CDK5/p35 (h) it was 21%. For the same compound, the inhibition at 10 µM at ERK2 (h) (P42mapk) is 33%; on IRK (h) (InsR), 0%; at TAOK2 (TAO1) (h) it was 16%; at MEK1/MAP2K1 (h) it was 27%. Moreover, the “Selectivity for GSK-3β compared to the other kinases of the panel” value at GSK3beta (h) is reported as “good selectivity profile”. Further, on human GSK-3β [1], the IC50 is 130 nM.

For `O=C(O)c1coc(CN2CCC(CNC(=O)c3n[nH]c4ccc(-c5cccc(F)c5F)cc34)CC2)n1` [Compound 12, 2-({4-[({[5-(2,3-Difluorophenyl)-1H-indazol-3-yl]carbonyl}amino)methyl]piperidin-1-yl}methyl)-1,3-oxazole-4-carboxylic acid hydrate], the inhibition at 10 µM at DYRK1a (h) was found to be 99%; at PCTAIRE1 kinase (h) it was 42%; at CDK2 (h) (cycA), 96%; at smMLCK (h) (MYLK), 36%; at Src kinase (h), 15%; at NEK1 (h), 30%. Further, the inhibition at 10 µM amounted to 100% on GSK3beta (h); 5% on TRKA (h); 98% on HGK (h) (MAP4K4); 85% at ERK1 (h); 77% on CDC2/CDK1 (h) (cycB); 87% on CDK5/p35 (h). Besides, the inhibition at 10 µM at ERK2 (h) (P42mapk) was 91%; on IRK (h) (InsR), 0%; at TAOK2 (TAO1) (h), 81%; at MEK1/MAP2K1 (h), 86%. The compound also returned an IC50 at human GSK-3β [2] of 10 nM. The “Selectivity for GSK-3β compared to the other kinases of the panel” value on GSK3beta (h) is on record as “good affinity to GSK-3β when compared to most of other kinases of the same family”.

These data come from patent US9163013B2, “Use of 1H-indazole-3-carboxamide compounds as glycogen synthase kinase 3 beta inhibitors” (AZIENDE CHIMICHE RIUNITE ANGELINI FRANCESCO A.C.R.A.F. …, priority 2012, dated 2015).
